From ChEMBL document CHEMBL1201862, “PubChem BioAssay data set” (2004)
Activity calls are given as the source filed them.

Columns and labels:
Streptococcus = assay: Luminescence Microorganism-Based Dose Response Follow up to Identify Compounds Cytotoxic to Streptococcus. [Related pubchem assays: 1677 (Project Summary), 1915, 1914, 1902 (Retest at Dose), 1900 (Counter Screen), 1662 (Primary HTS)]; type: functional, organism-based
[1] = Counterscreen for IDE inhibitors: Luminescence-based cell-based high throughput dose response assay to identify compounds that are cytotoxic to HEK cells. [Related pubchem assays: 434962 (Primary screen (IDE inhibitors in singlicate)), 449730 (Counterscreen (Cytotoxicity in triplicate)), 435028 (Confirmation (IDE inhibitors in triplicate)) …; type: functional; conditions: HEK293
Insulin-degrading enzyme = target: T1, Insulin-degrading enzyme (Homo sapiens, UniProt P14735); assay: Dose Response: Fluorescence polarization-based cell-based high throughput dose response assay for inhibitors of insulin-degrading enzyme (IDE). [Related pubchem assays: 434962 (Primary screen (IDE inhibitors in singlicate)), 449730 (Counterscreen (Cytotoxicity in triplicate)), 435028 (Confirmation (IDE inhibitors in triplicate)), 434984 (Summary …; type: functional
T1 sequence (P14735 whole entry): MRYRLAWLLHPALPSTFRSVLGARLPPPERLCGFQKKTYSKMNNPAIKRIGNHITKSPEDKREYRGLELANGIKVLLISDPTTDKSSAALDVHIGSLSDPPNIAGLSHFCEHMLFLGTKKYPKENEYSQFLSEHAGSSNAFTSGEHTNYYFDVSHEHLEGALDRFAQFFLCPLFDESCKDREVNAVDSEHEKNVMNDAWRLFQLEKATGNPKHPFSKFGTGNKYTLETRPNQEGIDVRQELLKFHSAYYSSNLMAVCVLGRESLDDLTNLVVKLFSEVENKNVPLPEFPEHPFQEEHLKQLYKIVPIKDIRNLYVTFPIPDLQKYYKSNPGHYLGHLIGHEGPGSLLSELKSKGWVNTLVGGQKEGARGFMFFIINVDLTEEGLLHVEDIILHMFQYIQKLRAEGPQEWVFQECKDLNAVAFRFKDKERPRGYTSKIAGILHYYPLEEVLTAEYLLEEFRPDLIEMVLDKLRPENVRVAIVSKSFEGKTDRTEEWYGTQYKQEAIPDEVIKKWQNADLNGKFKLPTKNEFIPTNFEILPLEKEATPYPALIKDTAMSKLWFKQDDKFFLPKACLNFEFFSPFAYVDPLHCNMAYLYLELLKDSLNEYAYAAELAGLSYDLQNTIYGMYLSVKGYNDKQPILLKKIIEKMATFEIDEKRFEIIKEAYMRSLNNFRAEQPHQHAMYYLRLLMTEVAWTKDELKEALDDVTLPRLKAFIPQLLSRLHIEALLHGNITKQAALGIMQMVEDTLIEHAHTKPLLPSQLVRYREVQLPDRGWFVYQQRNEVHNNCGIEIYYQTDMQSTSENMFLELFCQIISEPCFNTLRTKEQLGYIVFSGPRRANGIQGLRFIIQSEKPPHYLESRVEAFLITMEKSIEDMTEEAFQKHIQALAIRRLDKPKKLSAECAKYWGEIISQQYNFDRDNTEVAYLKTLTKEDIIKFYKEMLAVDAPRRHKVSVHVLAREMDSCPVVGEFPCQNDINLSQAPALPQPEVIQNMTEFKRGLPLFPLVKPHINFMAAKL

[2] = target: T2, High affinity choline transporter 1 (Homo sapiens, UniProt Q9GZV3); assay: human choline transporter blockers, potency – cell-based, 5-point CRC, membrane potential dye, dose response (AID 504840); type: functional
T2 sequence (Q9GZV3 whole entry): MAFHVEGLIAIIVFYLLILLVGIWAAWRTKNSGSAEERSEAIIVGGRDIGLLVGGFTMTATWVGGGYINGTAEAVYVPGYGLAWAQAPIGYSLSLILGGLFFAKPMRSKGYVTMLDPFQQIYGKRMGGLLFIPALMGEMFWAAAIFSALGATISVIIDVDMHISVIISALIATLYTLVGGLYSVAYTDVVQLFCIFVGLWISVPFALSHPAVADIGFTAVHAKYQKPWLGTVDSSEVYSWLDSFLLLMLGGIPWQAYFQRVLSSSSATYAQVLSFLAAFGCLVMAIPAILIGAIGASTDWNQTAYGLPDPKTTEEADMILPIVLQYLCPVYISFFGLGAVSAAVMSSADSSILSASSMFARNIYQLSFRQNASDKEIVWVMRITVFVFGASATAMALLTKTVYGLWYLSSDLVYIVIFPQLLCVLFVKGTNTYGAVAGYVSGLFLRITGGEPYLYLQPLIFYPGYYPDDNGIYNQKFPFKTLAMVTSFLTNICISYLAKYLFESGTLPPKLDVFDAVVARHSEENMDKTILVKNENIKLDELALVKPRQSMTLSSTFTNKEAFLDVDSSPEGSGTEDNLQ

[3] = target: T2, High affinity choline transporter 1; assay: human choline transporter blockers, potency – cell-based, 10-point CRC, membrane potential dye, dose response (AID 588401); type: functional;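 also: membrane potential dye fluorescence of choline-evoked depolarization via CHT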
[4] = luciferase reporter signal suppression in cells – H4 neuroglioma cells, luminescence, dose response (AID 1990); type: functional, cell-based
[5] = Luminescence Cell-Based Dose Response HTS to Identify Inhibitors of 5'UTR Stem-Loop Driven Prion Protein mRNA Translation in H4 Neuroglioblastoma Cells. [Related pubchem assays: 1827 (Project Summary), 1813 (Primary HTS)]; type: functional
[6] = alpha-synuclein stem-loop luciferase translation blockers – H4 neuroglioma cells, luminescence, confirmation (AID 1988); type: functional, cell-based
[7] = target: Luciferin 4-monooxygenase (Photinus pyralis, UniProt P08659); assay: inhibition of purified Photinus pyralis luciferase – biochemical, luminescence, dose response (AID 1891)
[8] = Luminescence Cell-Based Dose Confirmation HTS to Identify Inhibitors of Platelet Dense Granule Release. [Related pubchem assays: 1663 (Primary HTS), 1678 (Summary of Project)]; type: functional
[9] = Luminescence-based counterscreen assay for KLF5 inhibitors: dose response cell-based high throughput screening assay to identify cytotoxic compounds using the IEC-6 intestinal epithelial cell line. [Related pubchem assays: 1700 (Primary screen.), 1834 (Confirmation screen.), 1858 (Summary AID.), 1905 (Counterscreen.)]; type: functional
[10] = A549 cell cytotoxicity, dose response, cytotoxicity control, plate reader, cherry-pick, antagonist series (AID 743412); type: functional, cell-based
[11] = toxicity toward HepG2 liver cells – cell-based, plate reader, cherry-pick, antagonist series, cytotoxicity control, dose response (AID 743416); type: functional
[12] = blockers of bursicon-stimulated LGR2 cAMP reporter – cell-based, HEK293, CRE-luciferase reporter, cherry pick, set 2, dose response (AID 743343); type: functional;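 also: transfected cells were stimulated with diluted bursicon conditioned medium after compound addition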
[13] = blockade of melanocortin 4 receptor signaling – cell-based, plate reader, cherry pick, counter-screen for LGR2 antagonist project, dose response (AID 743444); type: functional;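 also: transfected HEK 293 cells stimulated with alpha-MSH peptide; potency of inhibitors of the alpha-MSH evoked signal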
[14] = viability loss in HEK293 cells – cell-based, plate reader, cherry-picked samples, cytotoxicity control, dose response (AID 743446); type: functional
[15] = viability of uninfected HEp-2 cells – cell-based, HTS, cytotoxicity control for RSV inhibitor project, dose response (AID 2410); type: functional; conditions: human respiratory syncytial virus
[16] = target: T3, Neuropeptides B/W receptor type 1 (Homo sapiens, UniProt P48145); assay: Fluorescence-based dose response cell-based high throughput screening assay to identify antagonists of the G-protein coupled receptor 7 (GPR7). [Related pubchem assays: 1952 (Screening assay (GPR7 antagonists).), 1880 (Summary AID.)]; type: functional
T3 sequence (P48145 whole entry): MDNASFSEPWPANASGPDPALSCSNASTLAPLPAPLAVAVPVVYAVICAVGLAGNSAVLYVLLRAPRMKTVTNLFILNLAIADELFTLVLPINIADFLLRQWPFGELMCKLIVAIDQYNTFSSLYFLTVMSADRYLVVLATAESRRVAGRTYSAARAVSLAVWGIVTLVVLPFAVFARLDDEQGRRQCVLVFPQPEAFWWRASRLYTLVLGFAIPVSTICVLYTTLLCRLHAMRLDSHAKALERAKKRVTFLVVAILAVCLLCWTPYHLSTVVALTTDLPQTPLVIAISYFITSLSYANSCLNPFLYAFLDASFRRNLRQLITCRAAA

[17] = target: Melanin-concentrating hormone receptor 1 (Homo sapiens, UniProt Q99705); assay: Fluorescence-based counterscreen for antagonists of the G-protein coupled receptor 7 (GPR7): cell-based high throughput dose response assay to identify antagonists of the melanin-concentrating hormone receptor 1 (MCHR1).; type: functional
[18] = target: T4, Corticotropin-releasing factor receptor 2/Corticotropin-releasing factor-binding protein (Homo sapiens, UniProt P24387+Q13324); assay: activators of CRF receptor 2 with binding protein – uHTS hits, confirmation (AID 602473); type: functional; conditions: read-out: EC50_Mean
T4 sequence (Q13324 whole entry): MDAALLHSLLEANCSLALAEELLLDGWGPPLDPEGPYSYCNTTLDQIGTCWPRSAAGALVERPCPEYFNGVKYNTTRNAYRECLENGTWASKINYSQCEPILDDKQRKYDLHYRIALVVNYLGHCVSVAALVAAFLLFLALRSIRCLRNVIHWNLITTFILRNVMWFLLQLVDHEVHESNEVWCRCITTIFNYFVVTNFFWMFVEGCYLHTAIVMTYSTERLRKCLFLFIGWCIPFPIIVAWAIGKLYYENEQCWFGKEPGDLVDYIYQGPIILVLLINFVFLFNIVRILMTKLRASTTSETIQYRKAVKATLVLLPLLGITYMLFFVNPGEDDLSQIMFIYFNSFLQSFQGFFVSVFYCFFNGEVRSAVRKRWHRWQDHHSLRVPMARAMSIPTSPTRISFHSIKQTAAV
T4 sequence (P24387 whole entry): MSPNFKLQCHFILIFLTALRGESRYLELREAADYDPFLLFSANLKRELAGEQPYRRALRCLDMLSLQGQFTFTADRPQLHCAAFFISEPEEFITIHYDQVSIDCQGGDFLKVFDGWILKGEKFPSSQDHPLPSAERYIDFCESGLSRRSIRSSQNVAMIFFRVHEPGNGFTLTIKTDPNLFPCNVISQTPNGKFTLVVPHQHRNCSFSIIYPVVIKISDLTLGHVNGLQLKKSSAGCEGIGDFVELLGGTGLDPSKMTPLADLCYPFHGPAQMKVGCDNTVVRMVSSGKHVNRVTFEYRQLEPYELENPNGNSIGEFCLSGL

Sequence of Luciferin 4-monooxygenase (P08659 whole entry): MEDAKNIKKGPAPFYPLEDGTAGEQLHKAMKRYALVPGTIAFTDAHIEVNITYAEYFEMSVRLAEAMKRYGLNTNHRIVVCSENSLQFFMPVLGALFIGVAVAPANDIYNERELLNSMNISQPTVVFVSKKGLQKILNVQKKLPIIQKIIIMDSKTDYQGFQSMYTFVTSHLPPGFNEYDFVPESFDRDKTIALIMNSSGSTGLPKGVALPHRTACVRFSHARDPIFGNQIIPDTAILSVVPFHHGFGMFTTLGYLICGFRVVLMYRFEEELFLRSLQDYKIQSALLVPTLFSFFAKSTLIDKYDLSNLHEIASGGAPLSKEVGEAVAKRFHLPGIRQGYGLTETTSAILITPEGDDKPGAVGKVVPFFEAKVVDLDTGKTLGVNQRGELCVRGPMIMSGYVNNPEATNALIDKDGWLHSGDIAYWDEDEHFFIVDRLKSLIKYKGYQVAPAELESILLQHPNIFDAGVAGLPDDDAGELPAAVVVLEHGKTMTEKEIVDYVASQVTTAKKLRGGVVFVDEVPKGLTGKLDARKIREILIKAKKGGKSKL
Sequence of Melanin-concentrating hormone receptor 1 (Q99705 whole entry): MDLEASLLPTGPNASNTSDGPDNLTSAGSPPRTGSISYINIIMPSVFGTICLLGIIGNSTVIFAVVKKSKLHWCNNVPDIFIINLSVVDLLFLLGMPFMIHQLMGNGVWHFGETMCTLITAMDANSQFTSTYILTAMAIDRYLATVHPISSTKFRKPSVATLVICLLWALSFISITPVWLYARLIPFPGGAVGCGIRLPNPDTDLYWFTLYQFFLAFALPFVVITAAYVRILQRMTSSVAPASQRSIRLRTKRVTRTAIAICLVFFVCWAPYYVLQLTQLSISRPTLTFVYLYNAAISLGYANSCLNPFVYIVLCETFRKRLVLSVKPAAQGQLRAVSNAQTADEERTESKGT

SMILES: N#Cc1ccc(C(=O)n2c3ccccc3c3ccccc32)cc1
- EC50 (Streptococcus): > 500 µM (not active)

SMILES: CC(C)(C)NC(=O)NC(=O)CN1CCN(c2cccc(Cl)c2)CC1
- IC50 [1]: 19.3 µM (not active)
- IC50 (Insulin-degrading enzyme): > 55.9 µM (not active)
- IC50 [2]: 8.64 µM (active)
- IC50 [3]: 3.16 µM (active)

SMILES: CCc1ccn2cc(-c3ccc4c(c3)OCO4)nc2c1
- EC50 [4]: 0.239 µM (active)
- EC50 [5]: < 0.1 µM (active)
- EC50 [6]: 0.158 µM (active)
- EC50 [7]: 2.16 µM (active)
- EC50 [8]: 8.85 µM (active)
- IC50 [9]: 21.5 µM (not active)
- AC50 [10]: > 52 µM (inactive)
- AC50 [11]: > 52 µM (inactive)
- AC50 [12]: 1.22 µM (active)
- AC50 [13]: 1.5 µM (active)
- AC50 [14]: > 52 µM (inactive)

SMILES: COc1ccc(-c2oc(=O)c3cc(OC)c(OC)cc3c2/C=C/c2cccc([N+](=O)[O-])c2)cc1
- CC50 [15]: 38 µM (active)
- IC50 (cells): 14.8 µM (active)

SMILES: N=c1c(C(=O)NCCc2ccccc2)cc2c(=O)n3ccccc3nc2n1CCCN1CCOCC1
- IC50 [16]: > 43.8 µM (not active)
- IC50 [17]: > 43.8 µM (not active)

SMILES: Cc1cccc(/N=C/c2[nH]c3ccc(Br)c(Cl)c3c2O)c1
- IC50 [1]: 13.1 µM (not active)
- IC50 (Insulin-degrading enzyme): 38.2 µM (not active)
- EC50 [18]: 0.46 µM (active)
